The values below are quoted from earlier work in patent US20230143731A1, “NANOMATERIALS FOR TARGETED TREATMENT OF PULMONARY TISSUE” (The University of North Carolina at Chapel Hill, priority 2020, published 2023).

The data set relates to ACE. As to conditions: with and without the C-terminal serine.

TPTQQ [TPTQQ peptide]: the ACE inhibition is on record as 26%. Consider TPTQQS, for which the ACE inhibition is reported as 73%.
